Results from publication PMC6471485, “Selective Inhibitors of a Human Prolyl Hydroxylase (OGFOD1) Involved in Ribosomal Decoding” (Chemistry (Weinheim an Der Bergstrasse, Germany), 2019).

Tests used:
OGFOD1 = target: T1, OGFOD1 (Homo sapiens, UniProt Q8N543); assay: 2OG displacement from OGFOD1 by CPMG-edited 1H NMR; type: binding; conditions: 10 µM 2OG, 10 µM OGFOD1, 70 µM inhibitor
T1 sequence (Q8N543 1-542): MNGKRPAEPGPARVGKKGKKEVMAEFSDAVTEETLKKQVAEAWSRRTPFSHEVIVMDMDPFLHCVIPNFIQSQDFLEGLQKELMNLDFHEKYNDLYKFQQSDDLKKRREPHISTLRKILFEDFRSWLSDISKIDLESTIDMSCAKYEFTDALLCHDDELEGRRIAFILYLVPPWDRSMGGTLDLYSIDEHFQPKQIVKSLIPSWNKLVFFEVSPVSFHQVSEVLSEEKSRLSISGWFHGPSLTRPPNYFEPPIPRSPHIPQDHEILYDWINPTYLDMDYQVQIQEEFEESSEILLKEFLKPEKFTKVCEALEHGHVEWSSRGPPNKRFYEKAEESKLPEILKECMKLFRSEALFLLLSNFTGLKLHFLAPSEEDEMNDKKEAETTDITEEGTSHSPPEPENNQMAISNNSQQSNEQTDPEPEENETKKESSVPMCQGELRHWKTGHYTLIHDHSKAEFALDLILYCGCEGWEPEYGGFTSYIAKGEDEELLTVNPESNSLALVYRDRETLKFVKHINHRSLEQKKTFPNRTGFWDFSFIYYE
Protocol: total echo time of 40 ms, a relaxation delay of 2 s, with 256 scans. Water suppression was achieved by presaturation. Samples contained 30 µM apo-PHD2181-426 or OGFOD1, supplemented with 60 µM Zn(II), 30 µM of inhibitor, all in 50 mM Tris-d11, pH 7.5, 10 % D2O, […]
wLOGSY Binding Experiments: For water-ligand observed gradient spectroscopy (wLOGSY) analyses, typical experimental parameters were the following: mixing time, 1 s; relaxation delay, 2 s; number of transients, 512. Solvent excitation was achieved using a 16-ms 180° selective rectangular shape pulse with 1,000 points (Squa100.1000) set at the H2O frequency. […]
Competition Experiments by 2OG Displacement: 2OG displacement assays[12] were performed using CPMG-edited 1H spectra. […] The 2OG methylene resonance at 2.35 ppm was monitored. […]
HeLa cells were cultured in DMEM media supplemented with 10 % fetal bovine serum, 4 mM L-glutamine, 100 U/mL penicillin, and 100 µg/mL streptomycin. […] Cell extracts were analyzed by SDS-PAGE, electroblotted onto PVDF membranes (Millipore) and probed with anti-HIF-1α antibody (clone 54, BD Transduction Laboratories) at 1:1000 dilution for 1 h at room temperature. […] Target proteins were detected with SuperSignal Chemiluminescent […]
Figure S15. Single-concentration qualitative 2OG displacement as monitored by CPMG-edited 1H NMR spectroscopy. […]

Structure (SMILES): Cn1c(O)c(C(=O)CCc2cccs2)c(=O)n(C)c1=O [compound 42]
- displacement of bound 2OG from OGFOD1, in words (OGFOD1): capable of displacing bound 2OG from the active site of OGFOD1
- melting point: 91 °C

Structure (SMILES): Cn1c(O)c(C(=O)CCc2ccccc2)c(=O)n(C)c1=O [compound 26]
- displacement of bound 2OG from OGFOD1, in words (OGFOD1): capable of displacing bound 2OG from the active site of OGFOD1
